Measurements from patent US11058668B2 (EIDOS THERAPEUTICS, INC., priority 2018, dated 2021).
Where “and” joins values, the source holds several entries; their conditions need not be identical. Equal values may be shown once. Read-outs that look alike come from different tables or passages of the source.

What was measured:
tetrameric TTR [1] = molecular target: T1, tetrameric TTR (Homo sapiens, UniProt P02766); assay: Phase 2 study, fluorescence probe (FPE) assay ex vivo; type: in vivo; design: monitoring TTR serum concentrations in trial participants; from tissue; host or cells: serum / plasma of ATTR-CM patients
Protocol: Aliquots of each serum sample are plated in 96 well plates. The fluorescence changes (λex=328 nm and λem=384 nm) after addition of probe are monitored every 15 min using a fluorescent capable microplate for 6 hr at RT.
(§1) The phase 2 clinical study was performed essentially as described in Example 3. A total of 49 patents were included instead of 45: 16 receiving 400 mg bid; 16 receiving 800 mg bid; and 17 receiving placebo.
(§2) TTR stabilization was measured ex vivo using the FPE and Western blot assays described at the beginning of the examples section. TTR stabilization was measured in vivo by monitoring TTR serum concentrations in trial participants.

tetrameric TTR [2] = molecular target: T1, tetrameric TTR; assay: Fluorescent Probe Exclusion (FPE) assay on serum of Phase 1 subjects; type: in vivo; design: from tissue; host or cells: serum / blood plasma of dosed healthy human volunteers; conditions: single dose of 300 mg and 800 mg
[3] = pKa values of stabilizers; type: physicochemical; conditions: carboxylic acid group
TTR [4] = molecular target: T2, TTR (Homo sapiens, UniProt P02766); assay: Isothermal titration calorimetry (ITC) with TTR in buffer; conditions: 25° C.
Protocol: Isothermal Titration Calorimetry (ITC). Binding experiments were performed using MicroCal PEAQ-ITC at 25° C. […] 19 injections of ligand (2.0 μL each) were injected into the ITC cell (at 25° C.) to the point that TTR was fully saturated with ligand. Calorimetric data were plotted and fitted using the standard single-site binding model.

[5] = Phase 1 (AG10-001) multiple ascending dose pharmacokinetics; type: in vivo, human; conditions: for Cmax / Tmax / AUC(0-t): human, plasma, oral, geometric mean; for AUC(0-t): read-out: AUC0-12
Protocol: Quantitation was performed using a weighted 1/x^2 linear least squares regression analysis generated from calibration standards prepared on the day of extraction. […]

TTR [6] = molecular target: T3, TTR (Homo sapiens, UniProt P02766, V50M); assay: Phase 2 study in ATTR-CM patients, serum TTR concentration (ARUP Prealbumin assay); type: in vivo; conditions: 800 mg b.i.d., V30M
T3 construct: monitoring TTR serum concentrations in trial participants; from tissue; host or cells: serum / plasma of ATTR-CM patients
Protocol: (§3) Screening and randomization will be followed by a 28-day blinded, placebo-controlled treatment period. Approximately 45 subjects are planned to enroll in the Phase 2 study.
(§4) An ARUP Prealbumin assay was also used to analyze TTR blood serum concentration in the MAD cohorts tested. ARUP analyzes samples for prealbumin using the prealbumin reagent kit provided by Roche Diagnostics and run on the Roche Diagnostics c702 module. Lowest reportable limit is 3 mg/dL.
as §1, §2

TTR [7] = assay: as above; type: in vivo, human; conditions: for Blood Serum TTR Concentration, Average Change: V122I; for Blood Serum TTR Concentration, Average Change (baseline to day 28): all genotypes, ATTR-CM patients
Protocol: as §3, §4, §1, §2

TTR [8] = molecular target: T2, TTR; assay: as above; type: in vivo; design: monitoring TTR serum concentrations in trial participants; from tissue; host or cells: serum / plasma of ATTR-CM patients; conditions: WT
Protocol: as §3, §4, §1, §2

[9] = Phase 1 (AG10-001) single ascending dose pharmacokinetics; type: in vivo, human; conditions: for Cmax / Tmax / concentration at 24 hr / AUC(0-t) / AUC(0-inf) / half-life: human, plasma; for concentration at 24 hr: read-out: C24
Protocol: Quantitation was performed using a weighted 1/x^2 linear least squares regression analysis generated from calibration standards prepared on the day of extraction.
One of the SAD cohorts received two 300 mg doses, one under fasted conditions and the other following a high fat test meal after an appropriate washout period.

TTR [10] = molecular target: T4, TTR (Macaca fascicularis, UniProt Q8HXW1); assay: Single dose study in monkeys, FPE assay on serum; type: in vivo, cynomolgus monkey
T4 construct: from tissue; host or cells: serum of dosed male cynomolgus monkeys
Protocol: There was a washout period of two weeks between the two phases. Blood samples were collected at pre-dose and at approximately 0.083 (IV only), 0.25, 0.5, 1, 2, 4, 8, 12, 24, 48, 72 and 96 hours post-dose. Plasma samples were assayed for AG10 and AG10 acylglucuronide and serum was tested in FPE assay.

[11] = Population PK analysis, effect of disease state and diuretics; type: in vivo, human
Source text: Thus, the final model retained disease state on the central volume of distribution.
Of the 17 subjects who were on placebo, 14 were on furosemide or torsemide.

[12] = ATTR-CM patients, FPE vs plasma concentration
[13] = both sexes, oral, 300 mg, SAD Cohort 3, 300 mg, Fasted, geometric mean
[14] = both sexes, oral, 300 mg, SAD Cohort 3, 300 mg, Fed (high fat test meal), geometric mean
[15] = both sexes, po, 50 mg, single oral dose 50 mg AG10 HCl, healthy subjects, geometric mean ± SD
[16] = both sexes, po, 150 mg, single oral dose 150 mg AG10 HCl, healthy subjects, geometric mean ± SD
[17] = both sexes, po, 300 mg, single oral dose 300 mg AG10 HCl, healthy subjects, geometric mean ± SD
[18] = both sexes, po, 800 mg, single oral dose 800 mg AG10 HCl, healthy subjects, geometric mean ± SD

Cc1n[nH]c(C)c1CCCOc1cc(C(=O)O)ccc1F [AG10, 3-(3-(3,5-dimethyl-1H-pyrazol-4-yl)propoxy)-4-fluorobenzoic acid]
target engagement by day 14 (fluorescence probe assay) (tetrameric TTR [1]; 400 mg b.i.d. and 800 mg b.i.d., trough and peak time points): near full target engagement
blood plasma concentration at which full target engagement occurs (tetrameric TTR [1]; [12]): about 7.5 μM
blood plasma concentration at which significant target engagement occurs (tetrameric TTR [1]; [12]): ~5 µM
stabilization of TTR at peak concentrations (FPE assay) (tetrameric TTR [2]): complete stabilization
pKa [3]: 4.13
ΔH (TTR [4]): -13.60 kcal/mol and -13.6 kcal/mol
accumulation over 12 days of dosing ([5]; 100, 300, 800 mg every 12 hr for 12 days): No significant accumulation
Cmax ([5]; 100 mg, 100 mg q12 h, Day 1): 8.67 µM
Tmax ([5]; 100 mg, 100 mg q12 h, Day 1): 47.6 min
AUC(0-t) ([5]; 100 mg, 100 mg q12 h, Day 1): 46.3 µM·h
Cmax ([5]; 100 mg, 100 mg q12 h, Day 12): 12.1 µM
Tmax ([5]; 100 mg, 100 mg q12 h, Day 12): 33.7 min
AUC(0-t) ([5]; 100 mg, 100 mg q12 h, Day 12): 70.3 µM·h
Cmax ([5]; 300 mg, 300 mg q12 h, Day 1): 14.3 µM
Tmax ([5]; 300 mg, 300 mg q12 h, Day 1): 42.4 min
AUC(0-t) ([5]; 300 mg, 300 mg q12 h, Day 1): 65.2 µM·h
Cmax ([5]; 300 mg, 300 mg q12 h, Day 12): 23.5 µM
Tmax ([5]; 300 mg, 300 mg q12 h, Day 12): 33.7 min
AUC(0-t) ([5]; 300 mg, 300 mg q12 h, Day 12): 97.7 µM·h
Cmax ([5]; 800 mg, 800 mg q12 h, Day 1): 31.8 µM
Tmax ([5]; 800 mg, 800 mg q12 h, Day 1): 47.6 min
AUC(0-t) ([5]; 800 mg, 800 mg q12 h, Day 1): 120 µM·h
Cmax ([5]; 800 mg, 800 mg q12 h, Day 12): 42.5 µM
Tmax ([5]; 800 mg, 800 mg q12 h, Day 12): 53.5 min
AUC(0-t) ([5]; 800 mg, 800 mg q12 h, Day 12): 159 µM·h
Blood Serum TTR Concentration, Average Change (TTR [6]): 61%
Blood Serum TTR Concentration, Average Change (TTR [7]; 400 mg b.i.d.): 51%
Blood Serum TTR Concentration, Average Change (baseline to day 28) (TTR [7]; 400 mg b.i.d.): 36%
Blood Serum TTR Concentration, Average Change (TTR [7]; 800 mg b.i.d.): 90%
Blood Serum TTR Concentration, Average Change (baseline to day 28) (TTR [7]; 800 mg b.i.d.): 50%
share of cohort with serum TTR concentrations within normal range (20-40 mg/dL) (TTR [7]; after 28 days of treatment, each active cohort (400 mg and 800 mg b.i.d.)): 100%
Blood Serum TTR Concentration, Average Change (TTR [8]; 400 mg b.i.d.): 32%
Blood Serum TTR Concentration, Average Change (TTR [8]; 800 mg b.i.d.): 35%
food effect on the pharmacokinetics ([9]; 300 mg, fed versus fasted state): minimal food effect
mean Tmax ([9]; SAD cohorts 1-4, 50-800 mg AG10 HCl oral): under one
Cmax [9, 13]: 15.1 µM
Tmax [9, 13]: 42.4 min
concentration at 24 hr [9, 13]: 2.19 µM
Cmax [9, 14]: 10.2 µM
Tmax [9, 14]: 95.4 min
AUC(0-t) ([9]; both sexes, oral, 300 mg, SAD Cohort 3, 300 mg, Fed (high fat test meal), geometric mean, read-out: AUC0-24): 111 µM·h
concentration at 24 hr [9, 14]: 2.69 µM
AUC(0-inf) ([9]; both sexes, po, 50 mg): 97.1 ± 12.1 µM·h
Cmax [9, 15]: 7.2 ± 0.72 µM
Tmax [9, 15]: 53.5 ± 44.2 min
AUC(0-t) ([9]; both sexes, po, 50 mg, single oral dose 50 mg AG10 HCl, healthy subjects, geometric mean ± SD, read-out: AUC0-24): 58.9 ± 4.09 µM·h
AUC(0-t) ([9]; both sexes, po, 50 mg, single oral dose 50 mg AG10 HCl, healthy subjects, geometric mean ± SD, read-out: AUClast): 95 ± 11.8 µM·h
concentration at 24 hr [9, 15]: 1.05 ± 0.13 µM
half-life ([9]; both sexes, po, 50 mg, read-out: T1/2 (converted)): 1500 ± 175 min
AUC(0-inf) ([9]; both sexes, po, 150 mg): 168 ± 46.8 µM·h
Cmax [9, 16]: 11.3 ± 4.76 µM
Tmax [9, 16]: 50.9 ± 58.2 min
AUC(0-t) ([9]; both sexes, po, 150 mg, single oral dose 150 mg AG10 HCl, healthy subjects, geometric mean ± SD, read-out: AUC0-24): 93 ± 16.8 µM·h
AUC(0-t) ([9]; both sexes, po, 150 mg, single oral dose 150 mg AG10 HCl, healthy subjects, geometric mean ± SD, read-out: AUClast): 166 ± 46 µM·h
concentration at 24 hr [9, 16]: 1.78 ± 0.465 µM
half-life ([9]; both sexes, po, 150 mg, read-out: T1/2 (converted)): 1510 ± 215 min
AUC(0-inf) ([9]; both sexes, po, 300 mg): 191 ± 77 µM·h
Cmax [9, 17]: 15.1 ± 3.6 µM
Tmax [9, 17]: 42.4 ± 16.4 min
AUC(0-t) ([9]; both sexes, po, 300 mg, single oral dose 300 mg AG10 HCl, healthy subjects, geometric mean ± SD, read-out: AUC0-24): 100 ± 9.76 µM·h
AUC(0-t) ([9]; both sexes, po, 300 mg, single oral dose 300 mg AG10 HCl, healthy subjects, geometric mean ± SD, read-out: AUClast): 186 ± 73.8 µM·h
concentration at 24 hr [9, 17]: 2.19 ± 0.435 µM
half-life ([9]; both sexes, po, 300 mg, read-out: T1/2 (converted)): 1320 ± 356 min
AUC(0-inf) ([9]; both sexes, po, 800 mg): 414 ± 87.5 µM·h
Cmax [9, 18]: 37.8 ± 11.3 µM
Tmax [9, 18]: 47.6 ± 15.5 min
AUC(0-t) ([9]; both sexes, po, 800 mg, single oral dose 800 mg AG10 HCl, healthy subjects, geometric mean ± SD, read-out: AUC0-24): 176 ± 27.7 µM·h
AUC(0-t) ([9]; both sexes, po, 800 mg, single oral dose 800 mg AG10 HCl, healthy subjects, geometric mean ± SD, read-out: AUClast): 410 ± 81.7 µM·h
concentration at 24 hr [9, 18]: 4.51 ± 0.565 µM
half-life ([9]; both sexes, po, 800 mg, read-out: T1/2 (converted)): 1610 ± 509 min
half-life ([9]; both sexes, po, read-out: elimination half-life): 1320 to 1620 min
AUC(0-t) ([9]; oral, 300 mg, SAD Cohort 3, 300 mg, Fasted, geometric mean, read-out: AUC0-24): 99.6 µM·h
binding to TTR in serum (FPE assay) (TTR [10]; 5 mg/kg per oral, 3 male monkeys): effectively binds to TTR in monkey serum
TTR stabilization versus dose (FPE assay) (TTR [10]; orally administered): stabilized TTR in a dose dependent manner
circulating trough concentration that is a suitable target based on stabilization of TTR ([11]; Phase 1 MAD 3 (800 mg Q12h) and Phase 2 ATTR-CM patients): ~8 µM
effect of commonly used diuretics on exposure ([11]; furosemide or torsemide co-administration): do not interfere with exposure
clearance ([11]; healthy adult volunteers in Phase 1 vs subjects in Phase 2, patient status or diuretics (furosemide/torsemide)): No difference in clearance
volume of distribution ([11]; subjects on furosemide/torsemide compared to healthy adult volunteers): lower
